Source: patent publication US8828987B2, “Pyridine amide derivatives as EP4 receptor antagonists” (Rottapharm Biotech S.R.L., priority 2010, dated 2014)
pIC50: −log10 of the molar value.

Columns and labels:
[1] = target: T1, human EP4 receptor (Homo sapiens, UniProt P35408); assay: [3H]-Prostaglandin E2 membrane binding assay (human EP4/HEK293 transfectant membranes); conditions: [3H]-PGE2 1 nM, hEP4/HEK293 membranes; Ki by Cheng-Prusoff; read-out: Binding pKi (converted)
T1 construct: expressed in transfected cells; membrane fraction used
From the text: (§1) Stable Expression of Human EP4 Receptors in the Human Embryonic Kidney (HEK293) Cell Line
(§2) The cDNA clone of human EP4 receptor (NM_000958.2) was obtained from Invitrogen™: Ultimate™ ORF Clone Collection—Clone ID IOH46525. The coding sequence was subcloned in expression vector pcDNA™6.2/V5-DEST by Gateway technology (Invitrogen™).
(§3) Human embryonic kidney cells (HEK-293) were stably transfected with expression vector for human EP4 receptor in according to the method described in FuGENE®6 Transfection Reagent's manual (Roche Applied Science®).
(§4) Preparation of Membrane Fraction:
(§5) The EP4 transfected cells were grown in Dulbecco's modified Eagle's medium containing 10% fetal bovine serum and 10 μg/ml Blasticidin S HCl (selection medium) at 37° C. in a humidified atmosphere of 5% CO2 in air.
(§6) For the membrane preparation, cells in flask were harvested by hypotonical/mechanical lysis with chilled (4° C.) TE buffer (5 mM TRIS, 5 mM etylenediamine tetra-acetic acid (EDTA), pH 7.4).
(§7) Cells were detached and lysed with 10 ml of hypotonic lysis buffer and by scraping. The cell lysate was vortexed for 30 sec and centrifuged at 40000×g at 4° C. for 22 min.
a) Membrane Binding Assay[3H]-Prostaglandin E2
The membrane pellet was resuspended in the same buffer (5 mM TRIS, 5 mM ethylenediamine tetra-acetic acid (EDTA), pH 7.4), and protein concentration was determined by Bradford method (Bio-Bad® assay).
This membrane preparation was stored at −80° C. freezer until use for binding assay.
([^3H]-PGE2) membranes binding assays toward hEP4 receptors (human EP4/HEK293 transfectant, see above) and hEP2 receptors (human EP2/HEK293 transfectant, purchased from PerkinElmer Inc) were performed in 10 mM MES-KOH buffer pH6, containing 10 mM MgCl2 and 1 mM CaCl2 for EP4 binding assay or 50 mM Tris-Cl, BSA 0.5% for EP2 binding assay (according to supplier indication).
Ten microgram of protein from membrane fractions were incubated in a total volume of 0.1 ml (EP4) or 0.2 ml (EP2) with 1 nM (EP4) or 3 nM (EP2) [^3H]-PGE2 (PerkinElmer Inc, 171 Ci/mmol). In both assays to determine the total binding or non specific binding, 1% DMSO or 1 μM prostaglandin E2 (EP4) or 100 μM (EP2) were added to reaction mixtures, respectively. Incubation was conducted in a polypropylene 96 multiwell for 90 min (EP4) or 60 min (EP2) at room temperature prior to separation of the bound and free radioligand by vacuum manifold rapid filtration on glass fiber filters (Unifilter GFB96, PerkinElmer Inc) pre-soaked in 0.3% polyethyleneimine. Filters were washed with ice cold buffer pH 7.4 (50 mM HEPES, NaCl 500 mM, BSA 0.1% for EP4 binding assay or 50 mM Tris-Cl for EP2 binding assays) and the residual [^3H]-PGE2 binding determined by solid scintillation counter (TopCount, PerkinElmer Inc).
The affinity (Ki) of each compound was calculated according to the Cheng-Prousoff equation: Ki=IC50/(1+([C]/Kd)). Results were expressed as pKi (−log 10 Ki (M)
Compounds of example 1 to 82 were tested according to method of example 83a in a final concentration range from 1 nM to 1 μM.

[2] = target: T1, human EP4 receptor; assay: cAMP assay (AlphaScreen) on human EP4 membrane of transfected cells, antagonism of PGE2; format: biochemical; conditions: HEK293 hEP4 cell membrane stimulated with PGE2 3 nM; read-out: functional IC50
From the text: as §1, §2, §3, §4, §5, §6, §7
b) cAMP Assay on Human EP4 Membrane of Transfected Cells.
The assay is based on the competition between endogenous cAMP and exogenously added biotinylated cAMP. The capture of cAMP is achieved by using a specific antibody conjugated to […] beads.
Cell membranes prepared as described above, were resuspended in 1 ml stimulation buffer (HBSS 1×+BSA 0.1%+IBMX 0.5 mM+HEPES 5 mM+MgCl2 10 mM+GTP 1 nM+GDP 10 μM+ATP 100 μM−pH 7.4). Cell membranes were dispensed into white 384-well microplates at final concentration of 1 μg/well and used for the determination of cAMP with the alphascreen cAMP functional assay (EnVision—PerkinElmer). Cell membrane/anti-cAMP Acceptor beads mix (5 μl) and a mixture of analysed compounds (dissolved in 100% DMSO to a final maximal concentration of 0.01% DMSO)/PGE2 (5 μl) were incubated at room temperature (22-23° C.) for 30 min in the dark. The Biotinylated-cAMP and donor beads (15 μl) were dispensed into each well to start the competition reaction. After 1 h incubation RT (22-23° C.) in the dark the plate was read using EnVision platform to determine the cAMP level (excitation: 680 nm; emission: 520,620 nm).
cAMP standard curve (concentration range from 1×10-6 to 1×10-11 M in. log intervals) with a negative control (no cAMP) a positive control:forskolin 10 μM
Antagonism studies were performed stimulating HEK293 cell membrane with PGE2 3 nM. The AlphaScreen signal is plotted as a function of log concentration of cAMP and functional IC50 is determined. IC50 value is calculated by linear regression.
Some compounds were tested according to method of example 83b.

T1 sequence (P35408 whole entry): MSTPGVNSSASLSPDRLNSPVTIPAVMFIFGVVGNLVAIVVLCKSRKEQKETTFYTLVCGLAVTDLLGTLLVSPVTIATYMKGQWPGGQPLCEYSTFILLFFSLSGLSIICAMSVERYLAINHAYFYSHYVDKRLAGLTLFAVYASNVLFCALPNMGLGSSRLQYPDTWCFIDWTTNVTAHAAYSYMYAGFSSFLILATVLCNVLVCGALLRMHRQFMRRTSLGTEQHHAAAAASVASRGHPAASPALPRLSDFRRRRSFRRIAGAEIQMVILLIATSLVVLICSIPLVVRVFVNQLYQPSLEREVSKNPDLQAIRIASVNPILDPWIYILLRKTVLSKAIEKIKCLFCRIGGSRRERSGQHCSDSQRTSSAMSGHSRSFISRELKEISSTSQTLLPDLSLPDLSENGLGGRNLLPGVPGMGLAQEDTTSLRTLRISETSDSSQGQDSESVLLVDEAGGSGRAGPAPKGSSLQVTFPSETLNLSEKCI

SMILES	Ki [1] [µM]	pIC50 [2]
Cc1cc(C(F)(F)F)ccc1NC1CN(c2ncc(Cl)cc2C(=O)NC2(c3ccc(C(=O)O)cc3)CC2)C1 [E 36, 4-(1-(5-chloro-2-(3-((2-methyl-4-(trifluoromethyl)phenyl)amino)azetidin-1-yl)nicotinamido)cyclopropyl)benzoic acid]	0.00398	7.52
O=C(O)c1ccc(C2(NC(=O)c3cc(C(F)(F)F)cnc3N3CC(Oc4ccc(Cl)cc4)C3)CC2)cc1 [E 40, 4-(1-(2-(3-(4-chlorophenoxy)azetidin-1-yl)-5-(trifluoromethyl)nicotinamido)cyclopropyl)benzoic acid]	0.00501	8.00
Cc1cc(F)ccc1N(C)C1CN(c2ncc(Cl)cc2C(=O)NC2(c3ccc(C(=O)O)cc3)CC2)C1 [E 37, 4-(1-(5-chloro-2-(3-((4-fluoro-2-methylphenyl)(methyl)amino)azetidin-1-yl)nicotinamido)cyclopropyl)benzoic acid]	0.0126	7.51
O=C(O)c1ccc(C2(NC(=O)c3cc(F)cnc3N3CC(Oc4cccc(F)c4)C3)CC2)cc1 [E 53, 4-(1-(5-fluoro-2-(3-(3-fluorophenoxy)azetidin-1-yl)nicotinamido)cyclopropyl)benzoic acid]	0.0316	7.10
O=C(O)c1ccc(C2(NC(=O)c3cc(Cl)cnc3N3CCC(Oc4ccc(F)cc4)C3)CC2)cc1 (single isomer, unassigned) [E 66, 4-(1-(5-chloro-2-(3-(4-fluorophenoxy)pyrrolidin-1-yl)nicotinamido)cyclopropyl)benzoic acid]	0.0398	7.37
Cc1cc(F)ccc1NC1CN(c2ncc(F)cc2C(=O)NC2(c3ccc(C(=O)O)cc3)CC2)C1 [E 56, 4-(1-(5-fluoro-2-(3-((4-fluoro-2-methylphenyl)amino)azetidin-1-yl)nicotinamido)cyclopropyl)benzoic acid]	0.01	7.34
O=C(O)c1ccc(C2(NC(=O)c3cc(C(F)(F)F)cnc3N3CC(Oc4ccc(F)c(C(F)(F)F)c4)C3)CC2)cc1 [E 42, 4-(1-(2-(3-(4-fluoro-3-(trifluoromethyl)phenoxy)azetidin-1-yl)-5-(trifluoromethyl)nicotinamido)cyclopropyl)benzoic acid]	0.00316	7.46
O=C(O)c1ccc(C2(NC(=O)c3cc(C(F)(F)F)cnc3N3CC(Oc4ccc(F)cc4F)C3)CC2)cc1 [E 44, 4-(1-(2-(3-(2,4-difluorophenoxy)azetidin-1-yl)-5-(trifluoromethyl)nicotinamido)cyclopropyl)benzoic acid]	0.01	7.76
O=C(O)c1ccc(C2(NC(=O)c3cc(Cl)cnc3N3CCCC3c3ccccc3)CC2)cc1 (single isomer, unassigned) [E 3, 4-(1-(5-chloro-2-(2-phenylpyrrolidin-1-yl)nicotinamido)cyclopropyl)benzoic acid]	0.0316	6.88
O=C(O)c1ccc(C2(NC(=O)c3cc(C(F)(F)F)cnc3N3CC(Nc4ccc(F)cc4F)C3)CC2)cc1 [E 52, 4-(1-(2-(3-((2,4-difluorophenyl)amino)azetidin-1-yl)-5-(trifluoromethyl)nicotinamido)cyclopropyl)benzoic acid]	0.02	7.13
O=C(O)c1ccc(C2(NC(=O)c3cc(C(F)(F)F)cnc3N3CC(Nc4cccc(F)c4)C3)CC2)cc1 [E 49, 4-(1-(2-(3-((3-fluorophenyl)amino)azetidin-1-yl)-5-(trifluoromethyl)nicotinamido)cyclopropyl)benzoic acid]	0.0251	7.16
O=C(O)c1ccc(C2(NC(=O)c3cc(Cl)cnc3N3CC[C@H](Oc4cccc(F)c4)C3)CC2)cc1 [E 80, (S)-4-(1-(5-chloro-2-(3-(3-fluorophenoxy)pyrrolidin-1-yl)nicotinamido)cyclopropyl)benzoic acid]	0.0398	7.00
O=C(O)c1ccc(C2(NC(=O)c3cc(C(F)(F)F)cnc3N3CC(Oc4cccc(C(F)(F)F)n4)C3)CC2)cc1 [E 47, 4-(1-(5-(trifluoromethyl)-2-(3-((6-(trifluoromethyl)pyridin-2-yl)oxy)azetidin-1-yl)nicotinamido)cyclopropyl)benzoic acid]	0.0631	6.64
O=C(O)c1ccc(C2(NC(=O)c3cc(Cl)cnc3N3CC(Oc4cccc(C(F)(F)F)c4)C3)CC2)cc1 [E 14, 4-(1-(5-chloro-2-(3-(3-(trifluoromethyl)phenoxy)azetidin-1-yl)nicotinamido)cyclopropyl)benzoic acid]	0.00501	7.42
O=C(O)c1ccc(C2(NC(=O)c3cc(Cl)cnc3N3CC(Oc4ccc(C(F)(F)F)cc4)C3)CC2)cc1 [E 13, 4-(1-(5-chloro-2-(3-(4-(trifluoromethyl)phenoxy)azetidin-1-yl)nicotinamido)cyclopropyl)benzoic acid]	0.0251	6.73
O=C(O)c1ccc(C2(NC(=O)c3cc(Cl)cnc3N3CCC(Oc4cccc(C(F)(F)F)c4)C3)CC2)cc1 (single isomer, unassigned) [E 63, 4-(1-(5-chloro-2-(3-(3-(trifluoromethyl)phenoxy)pyrrolidin-1-yl)nicotinamido)cyclopropyl)benzoic acid]	0.0316	6.84
O=C(O)c1ccc(C2(NC(=O)c3cc(Cl)cnc3N3CCC(Oc4cccc(C(F)(F)F)c4)C3)CC2)cc1 (single isomer, unassigned) [E 65, 4-(1-(5-chloro-2-(3-(3-(trifluoromethyl)phenoxy)pyrrolidin-1-yl)nicotinamido)cyclopropyl)benzoic acid]	0.0398	7.19
O=C(O)c1ccc(C2(NC(=O)c3cc(Cl)cnc3N3CC(Nc4ccc(F)cc4F)C3)CC2)cc1 [E 35, 4-(1-(5-chloro-2-(3-((2,4-difluorophenyl)amino)azetidin-1-yl)nicotinamido)cyclopropyl)benzoic acid]	0.00631	7.23
O=C(O)c1ccc(C2(NC(=O)c3cc(F)cnc3N3CC(Oc4cccc(Cl)c4)C3)CC2)cc1 [E 54, 4-(1-(5-fluoro-2-(3-(3-chlorophenoxy)azetidin-1-yl)nicotinamido)cyclopropyl)benzoic acid]	0.0251	7.12
O=C(O)c1ccc(C2(NC(=O)c3cc(Cl)cnc3N3CC(Oc4ccc(F)c(C(F)(F)F)c4)C3)CC2)cc1 [E 17, 4-(1-(5-chloro-2-(3-(4-fluoro-3-(trifluoromethyl)phenoxy)azetidin-1-yl)nicotinamido)cyclopropyl)benzoic acid]	0.02	7.09
